Test results published in paper PMC8060220, “Comparative study of hyperpure chlorine dioxide with two other irrigants regarding the viability of periodontal ligament stem cells” (Clinical Oral Investigations, 2020).
Marks after values point to notes of the source that are not given here.

Experiments:
[1] = test system: PDLSCs; assay: Impedimetry (xCELLigence), 10 min treatment, time course and viability; format: cell-based, human
Method: The effect of irrigative agents on the viability of the PDLSC cells was assessed using the xCELLigence SP System (Roche Applied Science, Indianapolis, IN, USA), which monitors the cellular events by measuring electrical impedance across interdigitating gold microelectrodes integrated on the bottom of tissue culture plates (E-plates). The detected impedance is influenced by the viability and morphology of the attached cells on the surface of the electrodes. The presence of cells due to their insulating plasma membranes constrain the electrical current and lead to an increase in the electrode impedance. The impedance depends on the number of the attached cells and on the dimensional change of the attached cells on the electrodes. More cells attached to the electrode or spreading cause a larger increase in the impedance. The change in impedances represented as “cell index” (CI) which is a relative and dimensionless value. Briefly, the experimental protocol was as follows: to register the background value, 100 μL of culture medium was added to each well and impedance was recorded for 1 h to gain constant background curves of impedance. In the following step, PDLSCs were seeded in 10^5 cells/mL density. After 24-h incubation, they were treated with the solutions of the investigated irrigative compounds (H2O2, CHX, and ClO2) for 10 min and the medium served as reference. […] Normalized impedance to the control calculated by the integrated software (RTCA 1.2—Roche Applied Science, Indianapolis, IN, USA) was used for the statistical evaluation. Each data point represents the mathematical average of three parallels.

[2] = test system: PDLSC cultures; assay: Morphological study, phase-contrast microscopy; format: cell-based, human; settings: 48 h after treatment; 0.3% H2O2, 0.02% CHX, 0.0025% or 0.00025% ClO2
Text: Cellular morphology was observed under an inverted phase-contrast microscope (Nikon TMS). Photomicrographs were taken applying a high-performance CCD camera (COHU) and the Scion image software.

[3] = test system: STRO-1; assay: Immunocytochemistry of stem cell marker STRO-1; format: cell-based, human; settings: 48 h, 0.02% CHX, 0.0025% (1/1) ClO2
Method: (§1) PDLSC cultures grown in 8 chamber slides (Nunc Lab-Tek) were treated with the antiseptic agents similar to the viability studies. After 48 h, treated and untreated cell cultures were fixed in 4% PFA in PBS for 20 min at room temperature (RT). To block non-specific binding, 5% goat serum in PBS was applied for 1 h at RT. Then cell cultures were incubated with the primary antibodies diluted 1:100 with 2.5% goat serum in PBS overnight at 4 °C. The applied primary antibodies were the following: anti-STRO-1 antibody (type mouse IgM)—a generous gift from Prof. Richard Oreffo (University of Southampton, UK); anti-CD90 (Thy-1; type mouse IgG) and the anti-CD105 (endoglin; type mouse IgM) antibodies purchased from Calbiochem and Santa Cruz Biotechnology, respectively. Goat anti-mouse IgM and IgG type secondary antibodies conjugated with Alexa Fluor 488 (Molecular Probes) were diluted with 2.5% goat serum in PBS in 1:2000 and 1:1000 respectively. The incubation time was 60 min at RT. Finally, the walls of the chambers were removed and the slides were mounted with ProLong Gold antifade reagent with DAPI (Molecular Probes). Immunocytochemically labeled cell cultures were investigated under a fluorescence microscope (Nikon Eclipse E600), the photos were taken by a Retiga 2000R digital CCD camera (QImaging), and analyzed by the Image Pro software (Media Cybernetics). Free macros for automated fluorescence analysis of image processing software FIJI/ImageJ were applied to evaluate immunostaining of stem cell markers. Each test point represents 3 × 3 reading of the samples.

[4] = test system: CD90; assay: Immunocytochemistry of stem cell marker CD90; format: cell-based, human; settings: 48 h, 0.02% CHX, 0.0025% (1/1) ClO2
Method: as §1

[5] = test system: CD105; assay: Immunocytochemistry of stem cell marker CD105; format: cell-based, human; settings: 48 h, 0.02% CHX, 0.0025% (1/1) ClO2
Method: as §1

[6] = test system: PDLSCs; assay: WST-1 test, concentration-response study; format: cell-based, human; settings: 48-h incubation, 50% viable cells
Method: (§2) To evaluate the concentration-dependent effects of the 3 antiseptic agents (H2O2, CHX, and ClO2), 9 different dilutions of each agent were prepared with growth medium (from 3.91 × 10^−6 to 10^−3 M, by 1:2 dilution in each step). As ClO2 is photosensitive and volatile, its dilution series were made in dark Eppendorf tubes which were opened only for the inevitably required time. After a 48-h-long incubation, cell viability was assessed by WST-1 test and impedimetric measurement, respectively (see below). The […] (IC50) values corresponding to the 50% viable cells or 0.5 normalized CI were determined from the concentration-effect curves in the case of the two methods, respectively.
(§3) This assay is dedicated to measuring the viability of PDLSCs. In 96-well culture plates, 10,000 PDLSCs were seeded. After 24 h, samples were treated with the irrigative compounds, and final concentrations were H2O2 0.3%, CHX 0.02%, and ClO2 0.0025% and 0.00025% solutions in 4-4 parallel wells. After 10 min, all the irrigative agents were removed and the samples were washed three times with normal growth medium, simulating the diluting effect of saliva in the oral cavity during the periodontal treatments. Forty-eight hours after the treatments, the cell viability was measured by the cell proliferation reagent containing water-soluble tetrazolium salt, WST-1 [2-(4-Iodophenyl)-3-(4-nitrophenyl)-5-(2,4-disulfophenyl)-2H-tetrazolium] (Roche). This assay determines mitochondrial dehydrogenase enzyme activity resulting water-soluble cleavage product. The WST-1 reagent was used at 1:20 dilution and incubation time was 2 h at 37 °C. Absorbance was measured at 450 nm with a reference wavelength of 655 nm by a microplate reader (BIO-RAD Model 3550). Background control values were determined in wells seeded with no cells. Each value represents the average of minimum 3 parallel measurements.

[7] = test system: PDL cells; parameters: method as in PMID 1507037; settings: 0.2 to 2.0% CHX pretreatment of the root surface; cited from earlier work
[8] = test system: gingival fibroblasts; parameters: method as in PMID 10632519; settings: cited from earlier work
[9] = test system: PDLSCs; assay: Impedimetry (xCELLigence), concentration-response study; format: cell-based, human; settings: Homo sapiens, 48 h, 48-h incubation, 0.5 normalized CI
Method: as §2
The effect of irrigative agents on the viability of the PDLSC cells was assessed using the xCELLigence SP System (Roche Applied Science, Indianapolis, IN, USA), which monitors the cellular events by measuring electrical impedance across interdigitating gold microelectrodes integrated on the bottom of tissue culture plates (E-plates). The detected impedance is influenced by the viability and morphology of the attached cells on the surface of the electrodes. The presence of cells due to their insulating plasma membranes constrain the electrical current and lead to an increase in the electrode impedance. The impedance depends on the number of the attached cells and on the dimensional change of the attached cells on the electrodes. More cells attached to the electrode or spreading cause a larger increase in the impedance. The change in impedances represented as “cell index” (CI) which is a relative and dimensionless value. Briefly, the experimental protocol was as follows: to register the background value, 100 μL of culture medium was added to each well and impedance was recorded for 1 h to gain constant background curves of impedance. […] The viability of the PDLSC was monitored for 96 h. Normalized impedance to the control calculated by the integrated software (RTCA 1.2—Roche Applied Science, Indianapolis, IN, USA) was used for the statistical evaluation. […]

[10] = test system: PDLSCs; assay: WST-1 viability assay, 10 min treatment; format: cell-based, human; settings: P3 and P7; 48 h; 0.3% H2O2, 0.02% CHX, higher ClO2 concentration (0.0025%)
Method: as §3

[11] = test system: equine fibroblasts; settings: cited from earlier work
[12] = test system: gingival fibroblasts; parameters: method as in PMID 1920010; settings: exposure of dental root surfaces to CHX (0.12%); cited from earlier work
[13] = 0.3% H2O2, 0.02% CHX, 0.0025% and 0.00025% ClO2, 10 min treatment

cell morphology and cell number under phase-contrast microscope [2]: number of cells dramatically decreased
Structure (SMILES): [H]/N=C(\N/C(=N/[H])NCCCCCCNC(=N)NC(=N)Nc1ccc(Cl)cc1)Nc1ccc(Cl)cc1 [CHX, chlorhexidine]
long-term (2–120 h) effect on normalized CI [1, 13]: retained their short-term cytotoxic effects
short-term (0–2 h) effect on normalized CI [1, 13]: rapid decrease of normalized CI profile
repopulation in long-term impedimetric analysis ([1]; 5-day-long period after treatment): no sign of repopulation
viability of PDLSC cultures, impedimetry ([1]; P3 and P7, 48 h, 0.3% H2O2, 0.02% CHX): significantly deteriorating effects
cells killed in 5 min ([1]; impedimetric results, 0.02% CHX): 50%
cells killed during the first 30 min ([1]; impedimetric results, 0.02% CHX, ClO2 depending on the concentration applied (0.0025%, 0.00025%)): about 70%
STRO-1 Fluo. int. [%] Control = 100% ([3]; P3): 130.52* %
STRO-1 Fluo. int. [%] Control = 100% ([3]; P7): 86.02%
CD90 Fluo. int. [%] Control = 100% ([4]; P3): 199.23*** %
CD90 Fluo. int. [%] Control = 100% ([4]; P7): 30.98*** %
CD105 Fluo. int. [%] Control = 100% ([5]; P3): 218.18*** %
CD105 Fluo. int. [%] Control = 100% ([5]; P7): 104.81%
IC50 [6]: 16.6 µM
IC50 ([6]; Homo sapiens, 48 h): 29.5 µM
attachment of PDL cells onto the root surface and their morphology [7]: adversely altered
low concentration shown to be toxic, reducing production of collagen and non-collagen proteins [8]: 0.0001%
IC50 [9]: 36.4 µM
viability of PDLSC cultures, WST-1 [10]: significantly deteriorating effects
concentration with 50% of survival [11]: 0.005%
subsequent attachment of gingival fibroblasts [12]: significantly inhibited
